Measured values as given in patent publication US20170252442A1, “PHOTOHEXER COMPOUNDS AND PHARMACEUTICAL COMPOSITION AND USE THEREOF” (RAINBOW PHARMATECH LLC, priority 2014, published 2017).

Experiments:
[1] = test system: SW-620 cells; experiment: MTT assay, photodynamic therapy on SW-620 cells; assay type: cell-based, human
Text: (§1) The cells in logarithmic growth phase were collected and inoculated on 24-well culture plates. When reaching 70%-80% confluence, cells were divided randomly into the following groups: control (the parallel control group without photosensitizer and irradiation), irradiation (irradiation treatment alone without photosensitizer); (photosensitizer treatment alone without irradiation), photodynamic treatment (treatment by photosensitizer in combination with irradiation). For the photosensitizer alone treatment group and photodynamic treatment group, an appropriate amount of Photohexer-1 (P-1) or Photohexer-2 (P-2) was respectively added away from light to give a final concentration of 0.8, 1.6, 3.2, 6.4 μM. Each group set 3 replicates. Cells were incubated with the active agent, different treatments were carried out according to the grouping. […] After treatment and digestion of each group of cells, it was inoculated into a 96-well plate at 100 μL/well, and four wells were set for each treatment. MTT assay was performed after 24 h from inoculation: 20 μL MTT solution was added to each well under the condition away from light, and the culture was continued for 4 hours. 150 μL DMSO was added to each well after discarding the supernatant. After 15 min of dissolution, the absorbance value (OD value) was measured using a microplate reader and the relative survival rate of cells was calculated according to the following formula: […]

[2] = test system: MCF-7 cells; experiment: MTT assay, photodynamic therapy on MCF-7 cells; assay type: cell-based, human
Text: as §1

[3] = test system: SW-480 cells; experiment: MTT assay, photodynamic therapy on SW-480 cells; assay type: cell-based, human
Text: as §1

[4] = test system: MDA-MB-231 cells; experiment: MTT assay, photodynamic therapy on MDA-MB-231 cells; assay type: cell-based, human
Text: as §1

[5] = test system: Caco2 cells; experiment: MTT assay, photodynamic therapy on Caco2 cells; assay type: cell-based, human
Text: as §1

[6] = test system: 4T1 transplanted tumors; experiment: Tumor-inhibition effect of P1 and P2-PDT on 4T1 xenografted mice; assay type: in vivo, Balb/c mice
Protocol: Experimental groups: blank control (2 mice), P-1 alone treatment (4 mg/kg, 8 mice), P-2 alone treatment (2 mg/kg, 8 mice), P-1 treatment (2 mg/kg, 4 mg/kg, 8 mice/group) combined with light irradiations, P-2 treatment (1 mg/kg, 2 mg/kg, 4 mg/kg, 8 mice/group) combined with light irradiations, 66 Balb/c mice in total.

[7] = test system: 7721 cells; experiment: MTT assay, photodynamic therapy on 7721 cells; assay type: cell-based, human
Text: as §1

[8] = Storage stability determination; assay type: physicochemical; details: 3 months of storage in dark at 2-4
Protocol: The storage stability of Photohexer-1 and Photohexer-2 was determined by conventional methods in the art.

[9] = test system: MCF-7/ADR cells; experiment: MTT assay, photodynamic therapy on MCF-7/ADR cells; assay type: cell-based, human
Text: as §1

[10] = 0.8 μM alone treatment, without irradiation
[11] = 0.8 μM combined with 2.6 J/cm^2 light irradiation
[12] = 0.8 μM combined with 5.2 J/cm^2 light irradiation
[13] = 0.8 μM combined with 10.4 J/cm^2 light irradiation
[14] = 1.6 μM alone treatment, without irradiation
[15] = 1.6 μM combined with 2.6 J/cm^2 light irradiation
[16] = 1.6 μM combined with 5.2 J/cm^2 light irradiation
[17] = 1.6 μM combined with 10.4 J/cm^2 light irradiation
[18] = 3.2 μM alone treatment, without irradiation
[19] = 3.2 μM combined with 2.6 J/cm^2 light irradiation
[20] = 3.2 μM combined with 5.2 J/cm^2 light irradiation
[21] = 3.2 μM combined with 10.4 J/cm^2 light irradiation
[22] = 6.4 μM alone treatment, without irradiation
[23] = 6.4 μM combined with 2.6 J/cm^2 light irradiation
[24] = 6.4 μM combined with 5.2 J/cm^2 light irradiation
[25] = 6.4 μM combined with 10.4 J/cm^2 light irradiation

Question: What does the source list for `C=CC1=C(C)c2cc3[nH]c(cc4nc(cc5[nH]c(cc1n2)c(C)c5CCC(=O)[O-])C(CCC(=O)[O-])=C4C)c(C)c3C(C)OCCCCCC.[Na+].[Na+]` (centres unmarked) [Photohexer P-1, 2-(1-hexyloxyethyl)-6,7-bis(propionatesodium)-1,3,5,8-tetramethyl-4-vinylporphyrin]?
Answer: Cell survival rate [1, 10]: 101.33 ± 3.20%; Cell survival rate [1, 11]: 100.74 ± 3.46%; Cell survival rate [1, 12]: 99.53 ± 3.71%; Cell survival rate [1, 13]: 94.65 ± 4.04%; Cell survival rate [1, 14]: 100.99 ± 2.47%; Cell survival rate [1, 15]: 96.64 ± 2.79%; Cell survival rate [1, 16]: 91.84 ± 2.97%; Cell survival rate [1, 17]: 87.51 ± 3.16%; Cell survival rate [1, 18]: 98.23 ± 1.59%; Cell survival rate [1, 19]: 91.39 ± 2.18%; Cell survival rate [1, 20]: 87.50 ± 1.69%; Cell survival rate [1, 21]: 82.58 ± 2.31%; Cell survival rate [1, 22]: 94.83 ± 1.09%; Cell survival rate [1, 23]: 86.70 ± 1.07%; Cell survival rate [1, 24]: 75.53 ± 1.03%; Cell survival rate [1, 25]: 68.33 ± 1.11%; sensitivity compared between P-1 and P-2 [2]: more sensitive than P-2; Cell survival rate [2, 10]: 102.94 ± 3.04%; Cell survival rate [2, 11]: 78.02 ± 4.55%; Cell survival rate [2, 12]: 68.03 ± 3.97%; Cell survival rate [2, 13]: 63.99 ± 4.42%; Cell survival rate [2, 14]: 82.48 ± 2.24%; Cell survival rate [2, 15]: 65.32 ± 2.43%; Cell survival rate [2, 16]: 47.92 ± 2.82%; Cell survival rate [2, 17]: 49.71 ± 3.94%; Cell survival rate [2, 18]: 71.23 ± 1.76%; Cell survival rate [2, 19]: 54.13 ± 2.04%; Cell survival rate [2, 20]: 45.96 ± 1.76%; Cell survival rate [2, 21]: 46.98 ± 2.67%; Cell survival rate [2, 22]: 60.81 ± 1.04%; Cell survival rate [2, 23]: 50.88 ± 1.02%; Cell survival rate [2, 24]: 41.69 ± 1.02%; Cell survival rate [2, 25]: 44.28 ± 1.07%; Cell survival rate [3, 10]: 101.14 ± 3.20%; Cell survival rate [3, 11]: 99.72 ± 3.16%; Cell survival rate [3, 12]: 95.61 ± 3.11%; Cell survival rate [3, 13]: 89.28 ± 3.01%; Cell survival rate [3, 14]: 100.83 ± 2.47%; Cell survival rate [3, 15]: 97.08 ± 2.89%; Cell survival rate [3, 16]: 94.55 ± 2.77%; Cell survival rate [3, 17]: 85.85 ± 2.68%; Cell survival rate [3, 18]: 98.02 ± 2.59%; Cell survival rate [3, 19]: 96.00 ± 2.24%; Cell survival rate [3, 20]: 85.27 ± 1.89%; Cell survival rate [3, 21]: 65.70 ± 2.01%; Cell survival rate [3, 22]: 91.27 ± 1.09%; Cell survival rate [3, 23]: 77.99 ± 1.22%; Cell survival rate [3, 24]: 65.38 ± 1.32%; Cell survival rate [3, 25]: 57.31 ± 1.03%; Cell survival rate [4, 10]: 97.82 ± 3.12%; Cell survival rate [4, 11]: 93.29 ± 3.66%; Cell survival rate [4, 12]: 90.67 ± 4.08%; Cell survival rate [4, 13]: 88.23 ± 4.09%; Cell survival rate [4, 14]: 91.07 ± 2.02%; Cell survival rate [4, 15]: 81.63 ± 2.87%; Cell survival rate [4, 16]: 76.33 ± 2.91%; Cell survival rate [4, 17]: 71.13 ± 3.79%; Cell survival rate [4, 18]: 75.52 ± 1.07%; Cell survival rate [4, 19]: 70.24 ± 2.03%; Cell survival rate [4, 20]: 68.08 ± 1.43%; Cell survival rate [4, 21]: 61.29 ± 2.27%; Cell survival rate [4, 22]: 70.10 ± 0.99%; Cell survival rate [4, 23]: 62.22 ± 1.04%; Cell survival rate [4, 24]: 64.88 ± 1.07%; Cell survival rate [4, 25]: 56.27 ± 1.06%; Cell survival rate [5, 10]: 99.34 ± 3.40%; Cell survival rate [5, 11]: 95.31 ± 3.86%; Cell survival rate [5, 12]: 93.10 ± 3.96%; Cell survival rate [5, 13]: 88.18 ± 4.24%; Cell survival rate [5, 14]: 97.36 ± 2.42%; Cell survival rate [5, 15]: 91.33 ± 2.69%; Cell survival rate [5, 16]: 89.01 ± 2.88%; Cell survival rate [5, 17]: 87.63 ± 3.49%; Cell survival rate [5, 18]: 95.34 ± 1.67%; Cell survival rate [5, 19]: 89.49 ± 2.15%; Cell survival rate [5, 20]: 87.46 ± 1.67%; Cell survival rate [5, 21]: 84.32 ± 2.76%; Cell survival rate [5, 22]: 83.33 ± 1.24%; Cell survival rate [5, 23]: 81.65 ± 1.07%; Cell survival rate [5, 24]: 74.26 ± 1.14%; Cell survival rate [5, 25]: 66.34 ± 1.17%; toxic effects of photosensitizer alone ([6]; 4 mg/kg alone, without irradiation, 4T1 tumor-bearing mice): did not show significant toxic effects; tumor inhibition rate ([6]; 4 mg/kg combined with light irradiation (50 J/cm^2), day 22 after treatment, 4T1 tumor-bearing mice): 25.6%; photosensitizer activity on growth of 4T1 transplanted tumors ([6]; combined with 50 J/cm^2 irradiation): obvious dose-dependent activity; Cell survival rate [7, 10]: 101.56 ± 4.08%; Cell survival rate [7, 11]: 97.88 ± 4.08%; Cell survival rate [7, 12]: 95.52 ± 3.42%; Cell survival rate [7, 13]: 94.75 ± 4.13%; Cell survival rate [7, 14]: 100.75 ± 4.14%; Cell survival rate [7, 15]: 93.31 ± 3.99%; Cell survival rate [7, 16]: 92.36 ± 2.91%; Cell survival rate [7, 17]: 91.35 ± 3.59%; Cell survival rate [7, 18]: 97.51 ± 3.98%; Cell survival rate [7, 19]: 94.92 ± 3.80%; Cell survival rate [7, 20]: 92.13 ± 2.77%; Cell survival rate [7, 21]: 88.59 ± 2.96%; Cell survival rate [7, 22]: 96.52 ± 3.94%; Cell survival rate [7, 23]: 94.42 ± 3.87%; Cell survival rate [7, 24]: 90.25 ± 4.07%; Cell survival rate [7, 25]: 84.98 ± 1.97%; toxic and side effects ([7]; alone or in combination with light irradiation): no obvious toxic and side effects; storage stability (content change by HPLC test) [8]: no content change; cell toxicity [9]: significant cell toxicity; Cell survival rate [9, 10]: 100.36 ± 3.70%; Cell survival rate [9, 11]: 55.89 ± 3.97%; Cell survival rate [9, 12]: 41.47 ± 4.88%; Cell survival rate [9, 13]: 37.45 ± 4.34%; Cell survival rate [9, 14]: 93.95 ± 2.47%; Cell survival rate [9, 15]: 53.43 ± 2.96%; Cell survival rate [9, 16]: 38.42 ± 2.51%; Cell survival rate [9, 17]: 32.58 ± 3.54%; Cell survival rate [9, 18]: 81.01 ± 1.58%; Cell survival rate [9, 19]: 50.99 ± 2.31%; Cell survival rate [9, 20]: 36.95 ± 1.89%; Cell survival rate [9, 21]: 31.79 ± 2.65%; Cell survival rate [9, 22]: 46.84 ± 1.02%; Cell survival rate [9, 23]: 45.48 ± 1.04%; Cell survival rate [9, 24]: 33.47 ± 1.41%; Cell survival rate [9, 25]: 27.27 ± 1.07%
